Assays:
[1] = molecular target: Human PCAF catalytic domain (residues 498-658) (human) (UniProt Q92831)
[2] = molecular target: T1, PCAF (KAT2B) (Homo sapiens, UniProt Q92831); assay: MALDI-TOF MS enzymatic assay of PCAF-catalyzed acetylation of histone peptides; assay type: biochemical; settings: 100 µM peptide, 300 µM AcCoA, pH 8.0, 37 °C; for acetylation (conversion to acetylated peptide) by PCAF: after 3 h, 2 µM PCAF, 50 mM Hepes, 0.1 mM EDTA, 1 mM DTT
T1 construct: Human PCAF catalytic domain (residues 498–658 in pET16b vector); SNAP-tag; His-tag; made in house; host or cells: E. coli BL21(DE3)
T1 sequence (Q92831 498-658): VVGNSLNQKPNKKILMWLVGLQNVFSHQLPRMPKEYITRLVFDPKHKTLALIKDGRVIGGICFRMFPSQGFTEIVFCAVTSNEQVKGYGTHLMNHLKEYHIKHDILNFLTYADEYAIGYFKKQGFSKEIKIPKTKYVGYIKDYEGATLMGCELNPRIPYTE
Protocol: (§1) MALDI-TOF MS enzymatic assays were carried out to investigate KAT-catalyzed acetylation of synthetic histone peptides. The enzymatic activity of the recombinantly expressed human KATs was measured at different time points (2 µM KAT enzyme, 100 µM histone peptide, 300 µM AcCoA, buffer: 50 mM Hepes, 0.1 mM EDTA, 1 mM DTT, pH = 8.0, 37 °C, hereafter used as standard conditions) (Fig. 3b,c). […] As further control, H4 and H3 peptides containing stereochemically inverted D-lysine were synthesized.
(§2) The KAT enzymatic activity towards histone peptides was measured at different time points under standard conditions (2 µM KAT enzyme, 100 µM peptide, 300 µM AcCoA) in the reaction buffer (50 mM HEPES, 0.1 mM EDTA, 1 mM DTT, pH = 8.0). The reactions were carried out in a final volume of 50 µL and shaken up in a Thermomixer C at 750 rpm, at 37 °C. The reactions were quenched by the addition of TFA 10% in MilliQ water at different time points. All reactions were aliquoted and mixed 1:2 with a solution of α-Cyano-4-hydroxycinnamic acid (CHCCA) in 1:1 MQ and ACN (0.1% TFA) and loaded onto an MTP 384 polished steel target to be analyzed by a UltrafleXtreme-II tandem mass spectrometer (Bruker, Billerica, MA, USA).

[3] = molecular target: T2, PCAF catalytic domain (Homo sapiens, UniProt Q92831); assay: MALDI-TOF MS kinetics assay, PCAF; assay type: biochemical; settings: for kcat^app / Km: PCAF catalytic domain 50 nM (2 µM for unnatural analogs), peptide 1,050–0 µM, pH 7.4, 37 °C, MALDI-TOF MS, duplicates, value ± SD, SD; for kcat^app: AcCoA 100 µM (saturating), 50 mM HEPES, 0.1 mM EDTA, 0.01% TRITON-X; for Km: AcCoA 100 µM, read-out: Km^app; for decrease (drop) of kcat/Km for PCAF compared to the natural lysine peptide: K14 series vs H3K14, K9 series vs H3K9; for decrease (drop) of kcat/Km for PCAF compared to the natural lysine peptide / kcat^app/Km^app: PCAF; for kcat^app/Km^app: same kinetics conditions
T2 construct: Human PCAF catalytic domain (residues 498–658 in pET16b vector); SNAP-tag; His-tag; made in house; host or cells: E. coli BL21(DE3)
T2 sequence (Q92831 498-658): as above
From the text: (§3) Kinetic analysis of bi-substrate enzymes, such as KATs, is reckoned to be challenging and dependent on many factors. Firstly, given the nature of these enzymes, the binding of one of the two substrates directly influences the binding of the other (with a direct effect on the Michaelis–Menten parameter Km). […] Therefore, to obtain data that would allow us to directly compare the catalytic properties of the selected KATs towards our selection of histone peptides bearing lysine analogs with longer side chains, two strategies to standardize our kinetic evaluation were taken: i) all the experiments were carried out with the same saturating concentrations of AcCoA and ii) only KATs catalytic domains were employed in the study.
(§4) Histone peptides kinetics evaluation was carried out with a MALDI-TOF MS assay under steady-state conditions[57],[58]. Histone peptides (1,050–0 µM) were incubated with AcCoA (100 µM) and the reactions were started by the addition of the enzyme (MOF 570 nM, PCAF and GCN5 50 nM) in a final volume of 20 µL in kinetic buffer (50 mM HEPES, 0.1 mM EDTA, 0.01% TRITON-X, pH = 7.4). […] AcCoA stock solutions in milli-Q water were calibrated with a NanoDrop 2000 spectrophotometer (Thermo Scientific, Waltham, MA, USA), employing the characteristic molar extinction coefficient ε260nm = 16,400 M^−1 cm^−1. Reactions were incubated at 37 °C, shaken at 750 rpm and quenched with TFA 10% in milli-Q water at different time points, within linear production of acetylated peptides extrapolated from time-course plots. All reactions were aliquoted and mixed 1:2 with a solution of α-cyano-4-hydroxycinnamic acid (CHCCA) in 1:1 MQ and ACN (0.1% TFA) and loaded onto MTP 384 polished steel target to be analyzed by UltrafleXtreme-II tandem mass spectrometer (Bruker). The amount of acetylated peptide was calculated by integration of the product peak area and divided it by the amount of unacetylated peptide, taking in account all the ionic species, at any concentration points using the FlexAnalysis software. Kinetic values were extrapolated by fitting V0 values (µM of produced peptide per minutes) and histone peptide concentrations to the Michaelis–Menten equation using the GraphPad Prism 5 software. Kinetic experiments were carried out in duplicates and final values are reported as value ± SD.

[4] = molecular target: T3, GCN5 (KAT2A) (Homo sapiens, UniProt Q92830); assay: MALDI-TOF MS enzymatic assay of GCN5-catalyzed acetylation of histone peptides; assay type: biochemical; settings: 300 µM AcCoA, pH 8.0, 37 °C; for acetylation (conversion to acetylated peptide) by GCN5: after 3 h, 2 µM GCN5, 100 µM peptide, 50 mM Hepes, 0.1 mM EDTA, 1 mM DTT
T3 construct: Human GCN5 catalytic domain (residues 497–662 in pET28a-LIC vector); His-tag; host or cells: E. coli BL21(DE3)
T3 sequence (Q92830 497-662): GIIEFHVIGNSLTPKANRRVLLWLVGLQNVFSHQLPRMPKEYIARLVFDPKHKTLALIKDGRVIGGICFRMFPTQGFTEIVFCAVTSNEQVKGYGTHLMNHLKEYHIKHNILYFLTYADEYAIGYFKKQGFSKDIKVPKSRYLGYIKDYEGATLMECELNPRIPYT
Protocol: as §1, §2

[5] = molecular target: T4, GCN5 catalytic domain (Homo sapiens, UniProt Q92830); assay: MALDI-TOF MS kinetics assay, GCN5; assay type: biochemical; settings: for decrease (drop) of kcat/Km for GCN5 compared to the natural lysine peptide: K14 series vs H3K14, K9 series vs H3K9; for decrease (drop) of kcat/Km for GCN5 compared to the natural lysine peptide / kcat^app/Km^app: GCN5; for kcat^app/Km^app: same kinetics conditions; for kcat^app / Km: GCN5 catalytic domain 50 nM (2 µM for unnatural analogs), peptide 1,050–0 µM, pH 7.4, 37 °C, MALDI-TOF MS, duplicates, value ± SD, SD; for kcat^app: AcCoA 100 µM (saturating), 50 mM HEPES, 0.1 mM EDTA, 0.01% TRITON-X; for Km: AcCoA 100 µM, read-out: Km^app
T4 construct: Human GCN5 catalytic domain (residues 497–662 in pET28a-LIC vector); His-tag; host or cells: E. coli BL21(DE3)
T4 sequence (Q92830 497-662): as above
From the text: as §3, §4

[6] = molecular target: Human GCN5 catalytic domain (residues 497-662) (human) (UniProt Q92830)
Sequence of Human GCN5 catalytic domain (residues 497-662) (human) (Q92830 497-662): as above

[7] = molecular target: Human PCAF catalytic domain (residues 498-658) (human) (UniProt Q92831); remark: listed apart in the source
[8] = molecular target: Human GCN5 catalytic domain (residues 497-662) (human) (UniProt Q92830); remark: listed apart in the source

Sequence of Human PCAF catalytic domain (residues 498-658) (human) (Q92831 498-658): as the sequence (Q92831 498-658) above

H3h2K9 histone peptide (H3 residues 1-15, K14 acetylated, h2K at position 9)
Km^app of PCAF-catalyzed acetylation (MALDI-TOF MS kinetics, steady state, saturating AcCoA, 37 °C, pH 7.4) [1]: 179 μM

TKQTARK Ac STGG hK 14 APR [H3hK14, 15-mer histone H3 peptide (K9ac) with hLys at position 14]
acetylation (conversion to acetylated peptide) by PCAF ([2]; MALDI-TOF MS): 83%
kcat^app [3]: 0.93 ± 0.2 min⁻¹
Km [3]: 488 ± 98 µM
decrease (drop) of kcat/Km for PCAF compared to the natural lysine peptide [3]: 263 fold
kcat^app/Km^app [3]: 1.9 mM⁻¹ min⁻¹
acetylation (conversion to acetylated peptide) by GCN5 ([4]; MALDI-TOF MS): 62%
decrease (drop) of kcat/Km for GCN5 compared to the natural lysine peptide [5]: 354 fold
kcat^app/Km^app [5]: 1.0 mM⁻¹ min⁻¹
kcat^app [5]: 0.87 ± 0.1 min⁻¹
Km [5]: 878 ± 157 µM

H3hK14 histone peptide (H3 residues 3-17, K9 acetylated, hLys at position 14)
Km^app of PCAF-catalyzed acetylation (MALDI-TOF MS kinetics, steady state, saturating AcCoA, 37 °C, pH 7.4) [1]: 488 μM
Km^app of GCN5-catalyzed acetylation (MALDI-TOF MS kinetics, steady state, saturating AcCoA, 37 °C, pH 7.4) [6]: 878 μM

H3h2K14 histone peptide (H3 residues 3-17, K9 acetylated, h2K at position 14)
Km^app of PCAF-catalyzed acetylation (MALDI-TOF MS kinetics, steady state, saturating AcCoA, 37 °C, pH 7.4) [1]: 606 μM
Km^app of GCN5-catalyzed acetylation (MALDI-TOF MS kinetics, steady state, saturating AcCoA, 37 °C, pH 7.4) [6]: 1050 μM

TKQTARK Ac STGG K14 APR [H3K14, 15-mer H3 peptide, residues 3–17, synthetically acetylated K9, reference compound]
time to quantitative acetylation by PCAF ([2]; standard conditions: 2 µM PCAF): 15 min
kcat^app [3]: 364 ± 1.2 min⁻¹
Km [3]: 727 ± 95 µM
kcat^app/Km^app [3]: 500 mM⁻¹ min⁻¹
time to quantitative acetylation by GCN5 ([4]; standard conditions: 2 µM GCN5, 100 µM peptide): 15 min
kcat^app/Km^app [5]: 356 mM⁻¹ min⁻¹
kcat^app [5]: 354 ± 2.1 min⁻¹
Km [5]: 995 ± 198 µM

H3K*9 histone peptide containing h4K at position 9 (H3 residues 1-15, K14 acetylated)
IC50 of inhibition of PCAF-catalyzed acetylation of the H3K9 peptide (single point, 100 µM of each peptide, 1 h, 37 °C, MALDI-TOF MS; residual activity greater than 50%) [7]: > 100 µM
IC50 of inhibition of GCN5-catalyzed acetylation of the H3K9 peptide (single point, 100 µM of each peptide, 1 h, 37 °C, MALDI-TOF MS; residual activity greater than 50%) [8]: > 100 µM

H3K*14 histone peptide containing h4K at position 14 (H3 residues 3-17, K9 acetylated)
IC50 of inhibition of PCAF-catalyzed acetylation of the H3K14 peptide (single point, 100 µM of each peptide, 1 h, 37 °C, MALDI-TOF MS; residual activity greater than 50%) [7]: > 100 µM
IC50 of inhibition of GCN5-catalyzed acetylation of the H3K14 peptide (single point, 100 µM of each peptide, 1 h, 37 °C, MALDI-TOF MS; residual activity greater than 50%) [8]: > 100 µM

H3K*9 histone peptide containing Dab at position 9 (H3 residues 1-15, K14 acetylated)
IC50 of inhibition of PCAF-catalyzed acetylation of the H3K9 peptide (single point, 100 µM of each peptide, 1 h, 37 °C, MALDI-TOF MS; residual activity greater than 50%) [7]: > 100 µM
IC50 of inhibition of GCN5-catalyzed acetylation of the H3K9 peptide (single point, 100 µM of each peptide, 1 h, 37 °C, MALDI-TOF MS; residual activity greater than 50%) [8]: > 100 µM

H3K14 histone peptide (H3 residues 3-17, K9 acetylated)
Km^app of PCAF-catalyzed acetylation (MALDI-TOF MS kinetics, steady state, saturating AcCoA, 37 °C, pH 7.4) [1]: 727 μM
Km^app of GCN5-catalyzed acetylation (MALDI-TOF MS kinetics, steady state, saturating AcCoA, 37 °C, pH 7.4) [6]: 995 μM

TKQTARK Ac STGG h2K 14 APR [H3h2K14, 15-mer histone H3 peptide (K9ac) with h2K at position 14]
acetylation (conversion to acetylated peptide) by PCAF ([2]; MALDI-TOF MS): 55%
kcat^app [3]: 0.5 ± 0.1 min⁻¹
Km [3]: 606 ± 96 µM
decrease (drop) of kcat/Km for PCAF compared to the natural lysine peptide [3]: 625 fold
kcat^app/Km^app [3]: 0.8 mM⁻¹ min⁻¹
acetylation (conversion to acetylated peptide) by GCN5 ([4]; MALDI-TOF MS): 25%
decrease (drop) of kcat/Km for GCN5 compared to the natural lysine peptide [5]: 890 fold
kcat^app/Km^app [5]: 0.4 mM⁻¹ min⁻¹
kcat^app [5]: 0.40 ± 0.1 min⁻¹
Km [5]: 1050 µM

ARTKQTAR h3K9STGGK Ac A [H3h3K9, 15-mer histone H3 peptide (K14ac) with h3K at position 9]
substrate for PCAF-catalyzed acetylation (in words) ([2]; standard conditions: 2 µM PCAF, 3 h, MALDI-TOF MS): No acetylation was observed within limits of detection
substrate for GCN5-catalyzed acetylation (in words) ([4]; standard conditions: 2 µM GCN5, 100 µM peptide, 3 h, MALDI-TOF MS): No acetylation was observed within limits of detection

H3K*9 histone peptide containing Orn at position 9 (H3 residues 1-15, K14 acetylated)
IC50 of inhibition of PCAF-catalyzed acetylation of the H3K9 peptide (single point, 100 µM of each peptide, 1 h, 37 °C, MALDI-TOF MS; residual activity greater than 50%) [7]: > 100 µM
IC50 of inhibition of GCN5-catalyzed acetylation of the H3K9 peptide (single point, 100 µM of each peptide, 1 h, 37 °C, MALDI-TOF MS; residual activity greater than 50%) [8]: > 100 µM

H3K*14 histone peptide containing Dab at position 14 (H3 residues 3-17, K9 acetylated)
IC50 of inhibition of PCAF-catalyzed acetylation of the H3K14 peptide (single point, 100 µM of each peptide, 1 h, 37 °C, MALDI-TOF MS; residual activity greater than 50%) [7]: > 100 µM
IC50 of inhibition of GCN5-catalyzed acetylation of the H3K14 peptide (single point, 100 µM of each peptide, 1 h, 37 °C, MALDI-TOF MS; residual activity greater than 50%) [8]: > 100 µM

H3K*14 histone peptide containing Orn at position 14 (H3 residues 3-17, K9 acetylated)
IC50 of inhibition of PCAF-catalyzed acetylation of the H3K14 peptide (single point, 100 µM of each peptide, 1 h, 37 °C, MALDI-TOF MS; residual activity greater than 50%) [7]: > 100 µM
IC50 of inhibition of GCN5-catalyzed acetylation of the H3K14 peptide (single point, 100 µM of each peptide, 1 h, 37 °C, MALDI-TOF MS; residual activity greater than 50%) [8]: > 100 µM
